In patent EP2135611A1, “Pregn-5-en-20-yne-3,7,17-triol derivatives for use in therapy” (Hollis-Eden Pharmaceuticals Inc., priority 2001, dated 2002):

Experiments:
Distal colitis [1] = experiment: DNBS-induced distal colitis (inflammatory bowel disease model); format: in vivo, male Wistar rats; conditions: for Adhesions between the colon and other organs / Colonic ulceration: observed at sacrifice day 7 or day 8, dosing as for each substance; for diarrhea: recorded daily, dosing as for each substance (AET: 2 mg); for Moderate acute inflammation, number of animals / Severe acute inflammation, number of animals: measured 7 days after DNBS challenge; for Moderate acute inflammation, number of animals / Severe acute inflammation, number of animals / Severe chronic inflammation, number of animals: groups of 10; for Severe chronic inflammation, number of animals: measured 14 days after DNBS challenge
Distal colitis [2] = experiment: TNBS-induced distal colitis; format: in vivo, male Sprague Dawley rats; conditions: for frequency of moderate to severe lesions and their severity compared with negative control (vehicle) and reference control: based on occurrence at multiple colonic levels
Method: In another protocol formula 1 compounds were used in a similar animal model. Groups of 10 male Sprague Dawley rats (250-300 grams) were fasted for 24 hours before 2,4,6-trinitrobenzene sulfonic acid (TNBS) or saline challenge. This model presents a severe challenge to the animal's immune system. On Day 0, the rats were lightly anesthetized and a catheter inserted rectally into the colon such that the tip was 8 cm proximal to the anus. Distal colitis was induced by intra-colonic instillation of 0.5 mL of an ethanolic solution of TNBS (60 mg/mL ethanol 50% in water). The test substance, 7-oxodehydroepiandrosterone 20 mg/mL in vehicle or vehicle control was administered by subcutaneous injection (0.1 mL/injection) once a day for 6 days, the first dose being given 30 minutes after TNBS challenge. Sulfasalazine (30 mg/mL in 2% Tween 80 in distilled water) or vehicle control was administered orally (PO) once a day (10mL/kg/day) for 7 days, the first two doses beginning 24 hours and 2 hours before DNBS challenge. Signs of diarrhea were recorded daily by examining the anal area. Animals were fasted for 24 hours prior to sacrifice on day 14 and the colon was removed and weighed. After gross observations of colonic tissues, 3 samples were taken from regions approximately 1, 3, and 8 cm proximal to the anus. If gross ulcers or inflammation were present, at least one sample was taken from the affected region. Before removal of the colon, signs of adhesion between the colon and other organs were recorded. […] Body weight, colon-to-body-weight ratio, and damage scores were assessed. Visible damage was scored on a 1-5 scale as follows: 0 = No damage; 1 = Localized hyperemia but no ulcers; 2= linear ulcers with no significant inflammation; 3 = Linear ulcers with inflammation at one site; 4 = Two or more sites of ulceration and/or inflammation; 5 = Two or more major sites of ulceration and inflammation or one major site of ulceration and inflammation extending more than 1 cm along the length of the colon. […]

[3] = test system: Experimental allergic encephalomyelitis (EAE); experiment: Experimental allergic encephalomyelitis induced with PLP-139-151 peptide/CFA; format: in vivo, Female SJL mice; conditions: for onset of EAE: 3.0 mg s.c. daily for 33 days starting 7 days before peptide; for peak clinical score: reduced from 5.2 ± 0.6; for PLP-139-151 specific T cell proliferation responses: T cells from treated mice; for numbers of TNF-α producing cells in the CNS: treated mice
Method: Example 50. Treatment of neurodegenerative conditions. Experimental allergic encephalomyelitis (EAE), is demyelinating disease of the central nervous system with many pathological and clinical similarities with multiple sclerosis (MS). EAE is thus a recognized animal model for human autoimmune conditions such as MS. Formula 1 compounds 16α-fluoroandrost-5-ene-17-one, 3β,7β,17β,-trihydroxyandrost-5-ene and 16α-bromoepiandrosterone were tested for their capacity to delay the onset of EAE or to reduce its symptoms. Female SJL mice (5 animals per group) were immunized with 150 to 200 µg of PLP-139-151 peptide/CFA to induce EAE. Starting 7 days before injection of the peptide, the animals were given daily injections (s.c.) of the compounds (3.0 mg) in 0.1 mL vehicle, or vehicle alone for 33 days. The vehicle consisted of a suspension of the formula 1 compound in saline and carboxymethylcellulose. […] A lower dose (0.3 mg/mouse) or other routes (p.o.) of administration had less effect. […] These compounds limited the production of autoimmune Th-1 associated cytokines, which is consistent with restoration of a more normal Th-1/Th-2 immune balance and/or with reduction of inflammation in this model.

[4] = test system: delayed type hypersensitivity (DTH); experiment: Delayed type hypersensitivity to oxazolone (ear thickness); format: in vivo, female BALB/cByJ mice; conditions: for differential ear thickness: 24 hours after oxazolone challenge, vehicle alone 0.225 mm
[5] = s.c. 20 mg/mL formulation once a day, first dose 30 minutes after DNBS, relative to vehicle-treated group / controls
[6] = day 7 (acute inflammation) after DNBS challenge
[7] = day 14 after DNBS challenge (chronic inflammation)

C[C@]12CC[C@H](O)CC1=CC(=O)[C@@H]1[C@@H]2CC[C@]2(C)C(=O)CC[C@@H]12 [7-oxodehydroepiandrosterone, 3β-hydroxyandrost-5-ene-7,17-dione]
decrease of net colon-to-body weight ratio (Distal colitis [1]; 0.1 mL s.c. of 2 mg/mL formulation once a day for 6 days, first dose 30 minutes after DNBS, relative to vehicle-treated group): 19% | Adhesions between the colon and other organs (Distal colitis [1]): absent in all three tested animals | Colonic ulceration (Distal colitis [1]): 1/3 | diarrhea (Distal colitis [1]): All animals had diarrhea | decrease of net colon-to-body weight ratio (Distal colitis [1]; [5]): 14% | effect on inflammation (histopathological data) (Distal colitis [2]; 20 mg/mL, 0.1 mL s.c. once a day for 6 days): exacerbated the inflammation

C[C@]12CCCCC1=CC[C@@H]1[C@@H]2CC[C@]2(C)C(=O)[C@H](F)C[C@@H]12 [16α-fluoroandrost-5-ene-17-one]
reduction of cumulative disease index ([3]; 3.0 mg s.c. daily for 33 days): > 60% | relapses ([3]; 3.0 mg s.c. daily for 33 days): prevented or significantly attenuated | onset of EAE [3]: significantly delayed | peak clinical score ([3]; 3.0 mg s.c. daily for 33 days): 2.8 ± 1.8 | PLP-139-151 specific T cell proliferation responses [3]: significantly reduced | numbers of TNF-α producing cells in the CNS [3]: reduced numbers

C[C@]12CC[C@H]3[C@@H]([C@@H](O)C=C4C[C@@H](O)CC[C@@]43C)[C@@H]1CC[C@@H]2O [AET, 3β,7β,17β-trihydroxyandrost-5-ene]
reduction of cumulative disease index ([3]; 3.0 mg s.c. daily for 33 days): > 60% | relapses ([3]; 3.0 mg s.c. daily for 33 days): prevented or significantly attenuated | onset of EAE [3]: significantly delayed | peak clinical score ([3]; 3.0 mg s.c. daily for 33 days): 2.8 ± 1.8 | PLP-139-151 specific T cell proliferation responses [3]: significantly reduced | numbers of TNF-α producing cells in the CNS [3]: reduced numbers | enhancement of the DTH response ([4]; s.c. 2 mg/day daily for 8 days, first dose 24 hours before sensitization, last dose 24 hours prior to challenge): 23% | reduction in the DTH response ([4]; s.c. 2 mg/day, administered 24 hours before challenge or at challenge): 22-24% | animals with colonic ulcerations relative to untreated animals (Distal colitis [1]; 2 mg, N=9, pooled data from two studies): 33% | animals showing ulcers (chronic ulceration) (Distal colitis [1]; 14 days after challenge, initiation of treatment delayed until 2 days after DNBS challenge): 5 of 10 | severe ulceration (Distal colitis [1]; [6]): 2 of 10 | severe ulceration (Distal colitis [1]; [7]): 1 of 10 | net colon-to-body weight ratio, ulcers and diarrhea (Distal colitis [1]; four subsequent studies): variably reduced | Moderate acute inflammation, number of animals (Distal colitis [1]): 6 animals | Severe acute inflammation, number of animals (Distal colitis [1]): 4 animals | Severe chronic inflammation, number of animals (Distal colitis [1]): 3 animals | Adhesions between the colon and other organs (Distal colitis [1]): absent | diarrhea (Distal colitis [1]): no diarrhea | decrease of net colon-to-body weight ratio (Distal colitis [1]; s.c. 0.2 mg/day for 5 or 6 days, first dose 30 minutes post-DNBS, relative to controls): 15% | decrease of net colon-to-body weight ratio (Distal colitis [1]; s.c. 2.0 mg/day for 5 or 6 days, first dose 30 minutes post-DNBS, relative to controls): 21%

C[C@]12CC[C@H](O)C[C@@H]1CC[C@@H]1[C@@H]2CC[C@]2(C)C(=O)[C@H](Br)C[C@@H]12 [BrEA, 16α-bromo-3β-hydroxy-5α-androstane-17-one]
effect on EAE ([3]; 3.0 mg s.c. daily for 33 days): not significant | decrease of net colon-to-body weight ratio (Distal colitis [1]; s.c. 100 mg/mL formulation, relative to controls): 21% | frequency of moderate to severe lesions and their severity compared with negative control (vehicle) and reference control (Distal colitis [2]): appeared to be similar

O=P1(N(CCCl)CCCl)NCCCO1 (centres unmarked) [cyclophosphamide, reference compound]
differential ear thickness [4]: 0.092 mm

C[C@]12CC[C@H](O)CC1=CC[C@@H]1[C@@H]2CC[C@]2(C)C(=O)CC[C@@H]12 [dehydroepiandrosterone, reference compound]
severe ulceration (Distal colitis [1]; [6]): 10 of 10 | severe ulceration (Distal colitis [1]; [7]): 0 of 10 | Moderate acute inflammation, number of animals (Distal colitis [1]): 0 animals | Severe acute inflammation, number of animals (Distal colitis [1]): 10 animals | Severe chronic inflammation, number of animals (Distal colitis [1]): 3 animals | decrease of net colon-to-body weight ratio (Distal colitis [1]; [5]): 3% | frequency of moderate to severe lesions and their severity compared with negative control (vehicle) and reference control (Distal colitis [2]): appeared to be similar

C[C@@H]1C[C@H]2[C@@H]3CCC4=CC(=O)C=C[C@]4(C)[C@@]3(F)[C@@H](O)C[C@]2(C)[C@@]1(O)C(=O)CO [dexamethasone, reference compound]
differential ear thickness [4]: 0.144 mm

O=C(O)c1cc(/N=N/c2ccc(S(=O)(=O)Nc3ccccn3)cc2)ccc1O [sulfasalazine, reference compound]
change in net colon-to-body weight (BW) ratio (Distal colitis [1]; PO 30 mg/mL, 10 mL/kg/day once a day for 7 days, relative to EE-1 treated group): -33% | severe ulceration (Distal colitis [1]; [6]): 3 of 10 | severe ulceration (Distal colitis [1]; [7]): 4 of 10 | Moderate acute inflammation, number of animals (Distal colitis [1]): 6 animals | Severe acute inflammation, number of animals (Distal colitis [1]): 3 animals | Severe chronic inflammation, number of animals (Distal colitis [1]): 2 animals | Adhesions between the colon and other organs (Distal colitis [1]): no animals | Colonic ulceration (Distal colitis [1]): no animals | diarrhea (Distal colitis [1]): all animals
